# Counter-ions that a name gives are not always drawn.
# Experiments:
# [1] = system: Sarcina lutea (ATCCC 9341); conditions: no beta-lactamase; sulbactam up to 100 μg./ml.
# [2] = system: Pasteurella histolytica (59B010); conditions: beta-lactamase mediated resistance; high concentrations alone or combined
# [3] = Apparent solubility of sultamicillin salts in water and simulated gastric juice (without pepsin, pH 1.2), HPLC; assay type: physicochemical; conditions: for Final pH, Simulated Gastric Juice: final pH of the solubility test in simulated gastric juice; for Final pH, Water: final pH of the solubility test in water; for Apparent Solubility, Simulated Gastric Juice: simulated gastric juice without pepsin, pH 1.2, 30 minutes agitation; for Apparent Solubility, Simulated Gastric Juice / Apparent Solubility, Water: 30 min; for Apparent Solubility, Water: 30 minutes vigorous agitation
# Description: The solubility of the salts in water and simulated gastric juice without pepsin (pH 1.2) were compared. Equilibrium solubility was not determined since the compounds are not entirely stable in aqueous systems for the extended time required to reach equilibrium. Therefore, the apparent solubility was determined by vigorous agitation for 30 minutes with the solvent. The resulting mixture was then filtered and the amount of compound in solution determined by high pressure liquid chromatography (HPLC).
# (§1) In the solubility and stability studies above samples of the materials were assayed by HPLC using a Chromegabond C-8* column (4.6 mm internal diameter×30 cm.). The mobile phase consisted of 30% by weight acetonitrile in pH 3 phosphate buffer (0.1 M). Flow rate, 1.6 ml/minute. Detection was by UV at 230 nm.
# [4] = Stability on storage at 50° C. for three weeks, retained potency (HPLC); assay type: physicochemical; conditions: 30240 min
# Description: as §1
# [5] = Stability and solubility of sultamicillin forms; assay type: physicochemical; conditions: for stability (in words): solid state / handling
# [6] = Storage of anhydrous salt under humidity / atmospheric moisture; assay type: physicochemical
# Source text: When 4-chlorobenzenesulfonic acid is used in the above procedure the corresponding anhydrous 4-chlorobenzenesulfonic acid addition salt is obtained.
smiles,measurement,setting,value
CC1(C)S[C@@H]2[C@H](NC(=O)[C@H](N)c3ccccc3)C(=O)N2[C@H]1C(=O)O [ampicillin],"susceptibility / synergy, Sarcina lutea",[1],susceptible
same,"susceptibility / synergy, Pasteurella histolytica",[2],insensitivity
"CC1(C)S[C@@H]2[C@H](NC(=O)[C@H](N)c3ccccc3)C(=O)N2[C@H]1C(=O)OCOC(=O)[C@@H]1N2C(=O)C[C@H]2S(=O)(=O)C1(C)C [Benzenesulfonate.2H2 O, 1,1-Dioxopenicillanoyloxymethyl 6-[D-(2-amino-2-phenylacetamido)]penicillanate benzenesulfonate dihydrate]","Final pH, Simulated Gastric Juice",[3]; benzenesulfonate dihydrate,2.0
same,"Final pH, Water",[3]; benzenesulfonate dihydrate,3.4
same,"Apparent Solubility, Simulated Gastric Juice",[3]; benzenesulfonate dihydrate,1800 µg/mL
same,"Apparent Solubility, Water",[3]; benzenesulfonate dihydrate,2150 µg/mL
same,potency retained upon storage,[4]; benzenesulfonate dihydrate,97%
"CC1(C)S[C@@H]2[C@H](NC(=O)[C@H](N)c3ccccc3)C(=O)N2[C@H]1C(=O)OCOC(=O)[C@@H]1N2C(=O)C[C@H]2S(=O)(=O)C1(C)C [Hydrochloride, 1,1-Dioxopenicillanoyloxymethyl 6-[D-(2-amino-2-phenylacetamido)]penicillanate hydrochloride]","Final pH, Simulated Gastric Juice",[3]; hydrochloride,1.12
same,"Final pH, Water",[3]; hydrochloride,2.0
same,"Apparent Solubility, Simulated Gastric Juice",[3]; hydrochloride,> 79000 µg/mL
same,"Apparent Solubility, Water",[3]; hydrochloride,> 94000 µg/mL
same,potency retained upon storage,"[4]; listed as hydrochloride salt, hydrochloride",67%
same,solubility in water / aqueous systems (in words),[5],highly soluble in water
same,stability in water (in words),[5]; aqueous,subject to hydrolytic decomposition
same,stability (in words),[5]; hydrochloride,poor solid state stability
"CC1(C)S[C@@H]2[C@H](NC(=O)[C@H](N)c3ccccc3)C(=O)N2[C@H]1C(=O)OCOC(=O)[C@@H]1N2C(=O)C[C@H]2S(=O)(=O)C1(C)C [4-Chlorobenzenesulfonate.2H2 O, 1,1-Dioxopenicillanoyloxymethyl 6-[D-(2-amino-2-phenylacetamido)]penicillanate 4-chlorobenzenesulfonate dihydrate]","Final pH, Simulated Gastric Juice",[3]; dihydrate,1.1
same,"Final pH, Water",[3]; dihydrate,3.8
same,"Apparent Solubility, Simulated Gastric Juice",[3]; dihydrate,6300 µg/mL
same,"Apparent Solubility, Water",[3]; dihydrate,3300 µg/mL
same,potency retained upon storage,"[4]; listed as 4-chlorobenzenesulfonae.2H2 O, dihydrate",100%
"CC1(C)S[C@@H]2[C@H](NC(=O)[C@H](N)c3ccccc3)C(=O)N2[C@H]1C(=O)OCOC(=O)[C@@H]1N2C(=O)C[C@H]2S(=O)(=O)C1(C)C [anhydrous salt, Anhydrous 1,1-Dioxopenicillanoyloxymethyl 6-[D-(2-amino-2-phenylacetamido)]penicillanate benzenesulfonate]",water content of dihydrate formed upon storage,"[6]; 50% relative humidity, 30 hours, by weight",4.5%
"CC1(C)[C@H](C(=O)O)N2C(=O)C[C@H]2S1(=O)=O [sulbactam, penicillanic acid 1,1-dioxide]","susceptibility / synergy, Sarcina lutea",[1],insensitive to sulbactam at concentrations as high as 100 μg./ml.
same,"susceptibility / synergy, Pasteurella histolytica",[2],insensitivity
CC1(C)S[C@@H]2[C@H](NC(=O)[C@H](N)c3ccccc3)C(=O)N2[C@H]1C(=O)OCOC(=O)[C@@H]1N2C(=O)C[C@H]2S(=O)(=O)C1(C)C,dihydrate formation upon exposure to atmospheric moisture,[6]; 48 hours,forms a dihydrate
"CC1(C)S[C@@H]2[C@H](NC(=O)[C@H](N)c3ccccc3)C(=O)N2[C@H]1C(=O)OCOC(=O)[C@@H]1N2C(=O)C[C@H]2S(=O)(=O)C1(C)C [Sultamicillin free base, 1,1-dioxopenicillanoyloxymethyl 6-[D-(2-amino-2-phenylacetamido)]penicillanate]",stability (in words),[5],poor handling characteristics and inadequate stability
